Test results published in patent US11986477B2, “Drug combination and use for treating tumors” (INXMED (NANJING) CO., LTD., priority 2022, dated 2024).
“And” between values parts separate entries of the source, which are not always exact repeats. Equal values may be shown once.

Experiments:
[1] = tested on: human non-small cell lung cancer HCC827 cells; assay: In vivo antitumor efficacy, BALB/c-nude mouse subcutaneous xenograft tumor model of HCC827 cells; conditions: for tumor growth inhibition compared with the blank control group / TGI / Tumor volume on day 32 / Tumor volume on day 37: AZD9291 3 mg/kg, IN10018 25 mg/kg, combination 3+25 mg/kg; for tumor growth inhibition compared with the blank control group: statistical difference from control; for Tumor volume on day 0: baseline at grouping, n=5; for Tumor volume on day 0 / Tumor volume on day 32 / Tumor volume on day 37: mean ± SD; for TGI: day 32, vs control group; for TGI / Tumor volume on day 32 / Tumor volume on day 37: PO QD; for Tumor volume on day 32: day 32 after administration by groups; for Tumor volume on day 37: day 37 after administration by groups
Description: 5% CO2 incubator. The cells were passaged by routine digestion with trypsin-EDTA two to three times a week. When the cells were in the exponential growth phase with 80%-90% saturation, the cells were harvested, counted and inoculated. 0.1 mL of a cell suspension containing 5×10^6 cells was inoculated subcutaneously into the right back of each mouse.
The experiment criteria was to investigate whether the tumor growth was inhibited, delayed or cured. Tumor diameter was measured three times a week using vernier calipers. Tumor volume was calculated according to the following formula: V=0.5×a×b^2, where a and b indicated the long diameter and short diameter of the tumor, respectively.
The tumor suppressive efficacy of the compounds was evaluated by TGI (%), which reflects the tumor growth inhibition rate.
Statistical analysis was performed based on tumor volume at the end of the trial using Prism Graphpad software. Comparisons among multiple groups were analyzed using Two-way ANOVA, Fisher's LSD test method, and P<0.05 was considered a significant difference. Comparisons between the two groups were analyzed using the t-test, Mann Whitney test method test, and P<0.05 was considered a significant difference.

[2] = Body weight and survival of HCC827 tumor-bearing BALB/c-nude mice during dosing; assay type: in vivo
Description: The use and welfare of laboratory animals were in accordance with the AAALAC regulations. Animals were monitored daily for health and death. Routine examinations included observation of tumor growth and the effects of drug treatment on the animals' daily behavior such as behavioral activities, food and water intake (visual inspection only), weight changes, appearance signs or other abnormalities. Animal deaths and side effects in each group were recorded based on the number of animals in each group.
The assay was carried out according to the dosing regimen, during which the animals were observed daily for feeding and drinking, and their body weights were recorded three times a week.

lung cancer KPL cells = assay: Lung cancer KPL cells incubated with drug for 48 hours, observed under microscope; assay type: cell-based; conditions: 48 h incubation; IN10018 10 μM, AZD9291 10 μM, Almonertinib 4.7 μM, Alflutinib 4.7 μM, single or combined
[3] = tested on: mouse colon cancer CT-26 cells; assay: In vivo antitumor efficacy, subcutaneous allograft tumor model of colon cancer CT-26 cells in BALB/c mice; conditions: for Tumor volume on day 0: baseline at grouping, mean ± standard error, n=6; for TGI: day 15, vs control group; for TGI / Tumor volume on day 15: IN10018 25 mg/kg, combination 20+25 mg/kg, p.o. QD; for Tumor volume on day 15: day 15 after administration by groups
Description: […] incubator. The cells were passaged by routine digestion with trypsin-EDTA two to three times a week. When the cells were in the exponential growth phase with […] saturation, the cells were harvested, counted and inoculated.
0.1 mL of a cell suspension containing 3×10^5 cells was inoculated subcutaneously into the right back of each mouse. When the tumor volume reached ˜59 mm^3 (on day 12 after cell inoculation), the mice were randomized into groups for administration according to the tumor volume, and the grouping information is shown in Table 2.
The tumor diameter was measured with a vernier caliper three times a week. The tumor volume was calculated by the formula: V=0.5×a×b^2, where a and b indicated the long and short diameter of the tumor, respectively.
Statistical analysis was performed based on tumor volume and tumor weight at the end of the trial using Prism Graphpad software. Comparisons among multiple groups were analyzed using Two-way ANOVA, Fisher's LSD test method. P<0.05 was considered a significant difference.

SMILES | tumor growth inhibition compared with the blank control group [1] | Tumor volume on day 0 [1] | TGI [1] | Tumor volume on day 32 [1] | Tumor volume on day 37 [1] | Body weight on day 0 ([2]; baseline, day of administration by groups, mean ± SD) | Body weight on day 37 ([2]; day 37, AZD9291 3 mg/kg, IN10018 25 mg/kg, combination 3+25 mg/kg PO QD, mean ± SD) | Rate of change in body weight ([2]; day 37 vs day 0, AZD9291 3 mg/kg, IN10018 25 mg/kg, combination 3+25 mg/kg) | Animal Survival ([2]; number of animals surviving on day 0/after administration, AZD9291 3 mg/kg, IN10018 25 mg/kg, combination 3+25 mg/kg) | cell status observed under microscope (lung cancer KPL cells) | tumor growth inhibition compared with the blank control group ([3]; AZD9291 20 mg/kg, AZD9291+IN10018 20+25 mg/kg, statistical difference from control) | Tumor volume on day 0 [3] | TGI ([3]; AZD9291 20 mg/kg) | Tumor volume on day 15 ([3]; AZD9291 20 mg/kg)
C=CC(=O)Nc1cc(Nc2nccc(-c3cn(C)c4ccccc34)n2)c(OC)cc1N(C)CCN(C)C [AZD9291, Osimertinib] | obvious tumor growth inhibition | 148.6 ± 59.6 mm^3 | 107.7% | 20.3±4.7 mm^3 | 17.0±6.7 mm^3 | 19.9 g and 19.9 ± 0.9 g | 19.4 g and 19.4 ± 1.4 g | −2.2% | 5/5 | poor cell status | obvious tumor growth inhibition | 37.9 ± 12.9 mm^3 | 33.2% | 1046.3±407.8 mm^3
C=CC(=O)Nc1cc(Nc2nccc(-c3cn(C4CC4)c4ccccc34)n2)c(OC)cc1N(C)CCN(C)C [Almonertinib] | – | – | – | – | – | – | – | – | – | poor cell status | – | – | – | –
COc1cc(C(=O)NC2CCN(C)CC2)c(F)cc1Nc1ncc(C(F)(F)F)c(Oc2cccc3c2C(=O)N(C)C3)n1 [IN10018] | obvious tumor growth inhibition | 147.7 ± 56.3 mm^3 | 104.1% | 79.2±51.8 mm^3 | 69.6±46.6 mm^3 | – | – | – | – | better cell status | – | 39.2 ± 17.9 mm^3 | −14.5% | 1766.9±732.5 mm^3
C=CC(=O)Nc1cc(Nc2nccc(-c3cn(C)c4ccccc34)n2)c(OCC(F)(F)F)nc1N(C)CCN(C)C [Alflutinib] | – | – | – | – | – | – | – | – | – | poor cell status | – | – | – | –
